{"source": "paper PMC5531494", "about": "“Target specificity, in vivo pharmacokinetics, and efficacy of the putative STAT3 inhibitor LY5 in osteosarcoma, Ewing's sarcoma, and rhabdomyosarcoma” (PLoS ONE, 2017)", "key": {"[1]": {"system": "RH10, RH36, OS-17 and OS-1", "assay": "Subcutaneous PDX models of RMS and OS, overall", "format": "in vivo, mice", "conditions": "subcutaneous PDX models RH10, RH36, OS-17, OS-1", "procedure": "C.B-17SC scid^-/- female mice (Taconic Farms, Germantown NY), were used to propagate subcutaneously implanted tumors. All mice were maintained under barrier conditions and experiments were conducted using protocols and conditions approved by the institutional animal care and use committee at University of Texas Health Science Center at San Antonio. Ten mice were used in each control or treatment group. Tumor volumes (cm^3) were determined and responses were determined using three activity measures as previously described.\nTo further examine the efficacy of LY5, we administered LY5 using subcutaneous PDX models of RMS (RH10 and RH36) and OS (OS-17 and OS-1). RH10, RH36 and OS-1 were derived from tissue explants, therefore no corresponding cell lines exist. Tumors were harvested 2 hrs after final drug administration. […] In addition, STAT3 phosphorylation was not observed in control or treated tumor derived from OS-17, and inhibition of STAT3 phosphorylation was not observed in OS-1 PDX models treated with 40 mg/kg twice daily."}, "OS-17-luc cells": {"system": "OS-17-luc cells", "assay": "Murine model of OS pulmonary metastasis, bioluminescent imaging", "format": "in vivo, mice", "conditions": "20 mg/kg LY5 daily oral gavage for 30 days, vs vehicle", "procedure": "The ability of LY5 to inhibit pulmonary metastases was evaluated using a murine model of OS pulmonary metastasis. 8-week-old C.B-17 scid -/- female mice (Envigo, Madison, WI) received IV inoculation with 10^6 OS-17-luc cells expressing a luciferase reporter gene. OS-17-luc cells were generated by infecting OS-17 wild type cells with lentivirus containing the firefly luciferase under a CMV promoter (Cellomics Technology, Hallethorpe, MD) and selected with 0.5 ug/mL puromycin (Thermo Fisher Scientific, Waltham, MA). Beginning 24 hrs after inoculation, mice received vehicle (n = 10) or 20 mg/kg LY5 once daily via oral gavage (n = 9, one mouse died within 24 hrs after cell inoculation). LY5 was prepared by diluting a 40 mg/mL solution/slurry with a 50% propylene glycol/1% Tween 20 in water vehicle immediately before administration. Mice were treated with LY5 for 30 days, and bioluminescent imaging (after IP luciferin administration) was performed to determine pulmonary metastatic disease load. To investigate the pharmacodynamics (PD) effects of LY5, pSTAT3 (p-Tyr705, ab76315, Abcam) and total STAT3 (ab119352, Abcam) were evaluated in pulmonary metastatic lesions using IHC in lung samples from mice euthanized 24 hrs after their last dose.\n(A-B) IHC staining of lung metastasis from mice treated with LY5. The metastatic tumor sections were stained with pSTAT3 or hematoxylin and eosin. […]"}, "[2]": {"biological_target": "T1, polo-like kinase 3 (PLK3) (Homo sapiens, UniProt Q9H4B4)", "T1 construct": "purchased KINOMESCAN (www.kinomescan.com)", "T1 sequence (Q9H4B4 whole entry)": "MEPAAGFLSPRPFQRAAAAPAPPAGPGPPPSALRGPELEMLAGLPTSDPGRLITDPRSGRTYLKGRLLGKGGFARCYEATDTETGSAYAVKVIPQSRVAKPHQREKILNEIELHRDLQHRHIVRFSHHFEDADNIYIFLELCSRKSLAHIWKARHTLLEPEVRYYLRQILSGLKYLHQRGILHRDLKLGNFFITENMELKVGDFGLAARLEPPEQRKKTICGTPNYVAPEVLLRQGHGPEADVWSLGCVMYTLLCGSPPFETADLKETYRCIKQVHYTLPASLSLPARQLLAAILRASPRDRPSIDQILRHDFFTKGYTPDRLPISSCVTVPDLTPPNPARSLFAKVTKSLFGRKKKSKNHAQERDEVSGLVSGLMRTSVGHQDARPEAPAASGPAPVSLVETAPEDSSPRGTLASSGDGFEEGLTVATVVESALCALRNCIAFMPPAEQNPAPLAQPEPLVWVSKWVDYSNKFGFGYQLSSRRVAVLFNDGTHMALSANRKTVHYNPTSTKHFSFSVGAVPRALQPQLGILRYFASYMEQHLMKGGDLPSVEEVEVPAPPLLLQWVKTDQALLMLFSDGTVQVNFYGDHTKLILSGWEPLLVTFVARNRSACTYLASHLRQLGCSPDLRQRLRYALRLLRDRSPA", "assay": "KINOMESCAN binding, PLK3", "conditions": "5 μM LY5", "procedure": "To determine the specificity of STAT blockade, we asked whether LY5 affected the phosphorylation of other family members including STAT1, STAT2, STAT4, and STAT6 [30–32]. […] To further define any potential off-target effects, we profiled the direct (steric) or indirect (allosteric) binding of LY5 to the binding sites of 96 human protein or lipid kinases (KINOMESCAN, www.kinomescan.com).\nSupplementary file pone.0181885.s001.pdf: S1 Fig Kinomescan results for LY5. […] At 5 μM LY5 (B), only interaction with PLK3 was identified, mapped S-score (35) = 0.01. (PDF) Click here for additional data file."}, "[3]": {"assay": "Toxicity / tolerability in mice", "format": "in vivo", "procedure": "Single-dose toxicity studies in mice were performed to identify the maximum tolerated dose of LY5. Additionally, 30 ICR mice (Harlan Laboratories, Indianapolis, IN) were divided into 3 groups to be dosed with 5 mg/kg LY5 (2 mg/ml) by oral (PO), intraperitoneal (IP) or intravenous (IV) routes to establish oral bioavailability. Animals were euthanized and blood was collected at allocated time points (5, 10, 20, 30 and 60 minutes, 2, 4, 6, 8 and 24 hrs) after LY5 administration, plasma was separated by centrifugation and frozen immediately on dry ice. Samples were stored at -80° C prior to analysis."}, "K7M2 cells": {"system": "K7M2 cells", "assay": "Sulforhodamine B cytotoxicity / cell viability assay", "format": "cell-based, murine", "conditions": "Mus musculus", "procedure": "Murine K7M2 and human MG63.3 OS cells were treated with increasing concentrations of LY5 for 2 hrs or 7 hrs. Western blotting was performed for pSTAT3 and STAT3 as indicated above to confirm inhibition of STAT3 phosphorylation in the cell lines prior to initiation of the PuMA assay. In addition, a sulforhodamine B colorimetric assay was performed to assess the cytotoxicity of LY5 in K7M2 and MG63.3 cells as previously described.\nMG63.3 and K7M2 cell lines were exposed to increasing concentrations of LY5 to determine the IC50 (A). Western blot analysis was performed to determine the dose and duration of LY5 exposure required to inhibit STAT3 phosphorylation (B-C). Serial imaging of fluorescently labeled MG63.3 and K7M2 cells was performed in ex vivo LY5 treated lung sections (D). Metastatic burden was quantified by evaluation of the percent tumor burden (mean normalized fluorescent area). Data are reported as the mean ± standard deviation. In MG 63.3 experiment, p < 0.0001 Kruskal-Wallis test, p < 0.05 10 μM vs control at days 7, 14, and 21, 10 μM vs 1 μM at days 7, 14, and 21, 50 μM vs control at days 7, 14, and 21, and 50 μM vs 10 μM at days 7, 14, and 21 post-test Dunn. In K7M2 experiment, p < 0.0001 Kruskal-Wallis test, p < 0.05 10 μM vs control at days 14 and 21, 10 μM vs 0.1 μM at days 14 and 21, and 10 μM vs 1 μM at days 14 and 21, post-test Dunn."}, "[4]": {"system": "human rhabdomyosarcoma cell lines RD, JR-1, and RH30", "assay": "Alamar Blue cell viability assay, rhabdomyosarcoma panel", "format": "cell-based", "conditions": "range over RD, JR-1, RH30", "procedure": "Sarcoma cell lines were seeded in 24-well plates in 1X RPMI medium containing 10% fetal bovine serum. Cells were then incubated with DMSO (control) or concentrations of LY5 ranging from 10 nM to 10 μM for 96 hrs. At the end of the incubation period, Alamar Blue (Invitrogen, Carlsbad, CA) was added to cells at one-tenth the volume of the cell culture medium and incubated for 3 hrs at 37° C in the dark. Fluorescence was then measured at an excitation/emissions wavelength of 570/590 nm and emission wavelength of 590 nm.\nFig 2 Biologic activity of LY5 in sarcoma cell lines. Dose response curves for LY5: RMS cell lines (RH30, RD, JR-1), ES cell lines (ES-3, ES-6, ES-7, ES-8), and an OS cell line (OS-17) were treated with LY5 (concentrations ranging from 10 nM to 10 μM) for 96 hours. Cell viability was determined using Alamar Blue staining. IC50 values are indicated for each cell line. Analyses were performed in triplicate and data are plotted as means ± standard deviation."}}, "data": [{"smiles": "NS(=O)(=O)c1cccc2c1C(=O)C=C(Nc1cccnc1)C2=O", "note": "[LY5, 5,8-dioxo-6-(pyridin-3-ylamino)-5,8-dihydronaphthalene-1-sulfonamide]", "values": [{"measurement": "PDX growth compared to control", "setting": "[1]", "value": "did not decrease PDX growth"}, {"measurement": "development of pulmonary metastatic lesions (luciferase expression)", "setting": "OS-17-luc cells", "value": "no difference"}, {"measurement": "binding to PLK3", "setting": "[2]", "value": "binding"}, {"measurement": "tolerable dosing", "setting": "[3]", "value": 40, "unit": "mg/kg BID"}, {"measurement": "toxicity", "setting": "[3]; doses received via IV, oral, or IP routes", "value": "No toxicity was noted"}, {"measurement": "IC50", "setting": "K7M2 cells", "value": 1500, "unit": "nM"}, {"measurement": "IC50", "setting": "[4]", "value": "200 to 400", "unit": "nM"}]}]}
